The record followed here is ChEMBL document CHEMBL4261514, “Interaction of indomethacin with calf thymus DNA: a multi-spectroscopic, thermodynamic and molecular modelling approach” (Medchemcomm, 2017).

Format in all cases: nucleic-acid assay
Holding throughout (details): Bos taurus

Experiment [1] relates to Calf thymus DNA. Kind of experiment: Binding affinity to calf thymus DNA assessed as hyperchromic shift at 281 nm at 50 uM by UV-visible spectrophotometric method.
The test system of experiment [2] is Calf thymus DNA. The experiment in a line: Binding affinity to calf thymus DNA by UV-visible spectrophotometric method.
In experiment [3] the test system is Calf thymus DNA. Kind of experiment: Binding affinity to calf thymus DNA assessed as Stern-Volmer quenching constant at 50 uM at pH 7.2 by spectrofluorophotometric method.
Experiment [4] has as its system Calf thymus DNA. The experiment in a line: Binding affinity to calf thymus DNA assessed as quenching constant at 50 uM at pH 7.2 by spectrofluorophotometric method.
For experiment [5], the system named is Calf thymus DNA. Kind of experiment: Binding affinity to calf thymus DNA by isothermal calorimetric titration method. On the technique in general: ITC needs no label: the signal is the heat of the interaction.
Experiment [6] deals with Calf thymus DNA. Kind of experiment: Inhibition of ethidium bromide binding to calf thymus DNA up to 80 uM by fluorescence assay.
The test system of experiment [7] is Calf thymus DNA. The experiment in a line: Inhibition of acridine orange binding to calf thymus DNA up to 80 uM by fluorescence assay.
In experiment [8] the test system is Calf thymus DNA. Kind of experiment: Inhibition of Hoechst 33258 binding to calf thymus DNA up to 70 uM by fluorescence assay.
Experiment [9] concerns Calf thymus DNA. Kind of experiment: Binding affinity to calf thymus DNA assessed as iodide quenching by measuring reduction in Stern-Volmer quenching constant at 50 uM by fluorescence assay relative to control. The arrangement: scale not given: the % may be the effect or the level left.
The subject of experiment [10] is Calf thymus DNA. The experiment in a line: Binding affinity to calf thymus DNA at 50 uM in presence of NaCl by fluorescence assay.
Experiment [11] concerns Calf thymus DNA. The experiment in a line: Binding affinity to calf thymus DNA assessed as melting temperature at 50 uM by UV-visible spectroscopic method (reference value: 66.3 +/- 1 degC).
Experiment [12] relates to Calf thymus DNA. The experiment in a line: Binding affinity to calf thymus DNA assessed as change in viscosity at compound to DNA ratio of 0.2 to 1 by viscometry.
The test system of experiment [13] is Calf thymus DNA. Kind of experiment: Binding affinity to calf thymus DNA assessed as conformational change up to 100 uM by circular dichroism spectral analysis. Background: Circular dichroism is widely used to follow secondary structure.

Calls of active or inactive are those of the source. The rule behind the calls is not given here.

For `COc1ccc2c(c1)c(CC(=O)O)c(C)n2C(=O)c1ccc(Cl)cc1`, the result with Calf thymus DNA [1] was Active. Moreover, the K with Calf thymus DNA [2] worked out at 9.6 ×10³ L/mol; in the experiment on Calf thymus DNA [5], 5.5 ×10³ /mol. For the same compound, the KSV in the experiment on Calf thymus DNA [3] stood at 1.1 ×10³ L/mol. The Kq in the experiment on Calf thymus DNA [4] was 1.1 ×10¹¹ L/mol/s. Also, the inhibition result in the experiment with Calf thymus DNA [6] and in the experiment on Calf thymus DNA [7] was “inactive” each time. Besides, the inhibition result with Calf thymus DNA [8] was “Active”. For the same compound, the Activity in the experiment with Calf thymus DNA [9] amounted to 19%. Further, the result in the experiment with Calf thymus DNA [10], in the experiment with Calf thymus DNA [12] and in the experiment on Calf thymus DNA [13] was inactive. Moreover, the Tm in the experiment with Calf thymus DNA [11] is 68.2 °C.
